Type in all cases: cell-based
Experiment [1] has as its system E. coli ATCC25922. Briefly: Antibacterial activity in combination with minocycline (growth inhibition). As to conditions: Escherichia coli, minocycline 0.25 μg/mL, OD625 23 h minus 1 h, read-out: residual growth of E. coli ATCC25922 (% of uninhibited control) with minocycline; for activity at 50 µM: ATCC25922, compound at 50 μM; for activity at 25 µM: ATCC25922, compound at 25 μM. The method, boiled down: (§1)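 Test compound combined with fixed subinhibitory partner antibiotic: linezolid 128 μg/mL for either strain, minocycline 0.25 μg/mL (E. coli) or 8 μg/mL (P. aeruginosa), in caMHB shaken at 37 °C. Residual growth as % of inhibitor-free control, from OD625 at 23 h minus 1 h.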

Experiment [2] deals with P. aeruginosa PAO1. Described as above. As to conditions: Pseudomonas aeruginosa, PAO1, compound at 50 μM; minocycline 8 μg/mL; OD625 23 h minus 1 h; read-out: residual growth of P. aeruginosa PAO1 (% of uninhibited control) with minocycline. Put shortly: as §1
Experiment [3] relates to E. coli ATCC25922. Description: Antibacterial activity in combination with linezolid (growth inhibition). As to conditions: Escherichia coli, ATCC25922, compound at 50 μM; linezolid 128 μg/mL; OD625 23 h minus 1 h; read-out: residual growth of E. coli ATCC25922 (% of uninhibited control) with linezolid. The method, then: Antibacterial activity in combination with minocycline or with linezolid
Inhibition of growth was measured with E. coli ATCC25922 and P. aeruginosa PAO1 in a 96-well plate format. Cation-adjusted Müller-Hinton broth (caMHB) was inoculated with an overnight culture and incubated at 37° C. on a shaker until OD625 reached 0.6 to 0.7. Density was adjusted to OD600=0.5 by addition of caMHB. 35 μL of the suspension were diluted to 35 mL with caMHB and supplemented with minocycline at the subinhibitory doses of 0.25 μg/mL for E. coli and 8 μg/mL for P. aeruginosa or with linezolid at the subinhibitory dose of 128 μg/mL for E. coli and P. aeruginosa. Each well contained 1 μL of test compound in 100 μL caMHB with minocycline or with linezolid.
Plates were incubated at 37° C. on a plate shaker. OD625 was measured at 1 h, 6 h, and at 23 h.
The difference between OD at 23 h and at 1 h was taken as measure for cell density and compared to controls without inhibitor (i.e. uninhibited control). Results were expressed as residual growth (% of uninhibited control). Enhancement of minocycline or linezolid activity caused reduced residual growth.

For the molecule `COc1cc(C#N)ccc1COc1cccc(CNCC2CNC2)c1` [Example 26], the activity at 50 µM in experiment [1] and in experiment [2] was not above 50% each time.

Consider `Clc1ccc(COc2cccc(CCNCC3CNC3)c2)cc1` [Example 28], for which the activity at 25 µM in experiment [1] was not above 10%. Moreover, in experiment [2], the activity at 50 µM was not above 50%.

Turning to `Brc1ncccc1COc1cccc(CNCC2CNC2)c1` [Example 48], the activity at 50 µM in experiment [3] is not above 50%.

For the molecule `CC(C)(c1ccccc1)c1ccc(OCCNCC2CNC2)cc1` [Example 50], the activity at 50 µM in experiment [1] and in experiment [2] was not above 50% in each case.

Regarding `CC(C)(C)c1ccc(COc2ccc(CNCC3CCNCC3)cc2)cc1` [Example 57], the activity at 25 µM in experiment [1] was not above 10%. In experiment [2], the activity at 50 µM is not above 50%. On the same counts, the results for `Clc1ccc(-c2cccc(CNCC3CCNC3)c2)c(Br)c1` (stereo not drawn) [Example 74] are not above 10% and not above 50%. `N#Cc1ccc(COc2ccc(CNCC3CNC3)cc2)cc1` [Example 76]: the activity at 50 µM in experiment [3] is not above 50%. Turning to `CS(=O)(=O)c1ccc(COc2ccc(CNCC3CNC3)cc2)c(Cl)c1` [Example 78], the activity at 50 µM in experiment [3] is not above 50%. As to `Clc1ccc(Oc2ccc(CNCC3CCNC3)cc2)c(Br)c1` (stereo not drawn) [Example 82], in experiment [1], the activity at 25 µM was not above 10%. In addition, the activity at 50 µM in experiment [2] was not above 50%. With `COC(=O)c1ccc(COc2ccc(CNCC3CNC3)cc2)c(Br)c1` [Example 87], the activity at 50 µM in experiment [1] and in experiment [2] was not above 50% each time. With `Clc1ccc(Oc2ccccc2CNCC2CNC2)c(Br)c1` [Example 89], the activity at 50 µM in experiment [1] and in experiment [2] was not above 50% throughout. With `Clc1ccc(OCc2ccc(CNCC3CNC3)o2)c(Br)c1` [Example 93], the activity at 50 µM in experiment [2] is not above 50%. On the same count and under the same terms, for `CS(=O)(=O)c1ccc(COc2cccc(CNCC3CNC3)c2)c(Cl)c1` [Example 102] the value was not above 50%. In the case of `O=C(O)c1cc(CNCC2CNC2)cc(OCc2ccc(Cl)cc2Br)c1` [Example 110], in experiment [3], the activity at 50 µM was not above 50%. On to `COCc1cc(CNCC2CNC2)cc(OCc2ccc(Cl)cc2Br)c1` [Example 124], for which, in experiment [1], the activity at 25 µM is not above 10%. In addition, the activity at 50 µM in experiment [2] is not above 50%. Regarding `FC(F)(F)c1cc(Cl)ccc1COc1cccc(CNCC2CNC2)c1` [Example 131], in experiment [1], the activity at 25 µM was not above 10%. Also, the activity at 50 µM in experiment [2] is not above 50%.

In the case of `O=C(CNCC1CCNC1)c1cccc(OCc2ccc(Cl)cc2Br)c1` (stereo not drawn) [Example 143], in experiment [3], the activity at 50 µM is not above 50%.

With `Clc1ccc(NCc2cccc(CNCC3CNC3)c2)c(Br)c1` [Example 170], the activity at 25 µM in experiment [1] is not above 10%. For the same molecule, the activity at 50 µM in experiment [2] was not above 50%.

As to `Clc1ccc(COCc2cccc(CNCC3CNC3)c2)c(Br)c1` [Example 173, N-(azetidin-3-ylmethyl)-1-[3-[(2-bromo-4-chloro-phenyl)methoxymethyl]phenyl]methanamine], the activity at 25 µM in experiment [1] is not above 10%. Besides, the activity at 50 µM in experiment [2] is not above 50%. On to `Clc1ccc(COc2cccc(CNCC3CNC3)c2)c(Cl)c1` [Example 177], for which the activity at 25 µM in experiment [1] was not above 10%. Also, the activity at 50 µM in experiment [2] is not above 50%. `Ic1ccc(COc2cccc(CNCC3CNC3)c2)cc1` [Example 206]: the activity at 50 µM in experiment [2] is not above 50%. For `O=C(O)c1ccc(COc2cc(CNCC3CNC3)cc(OCc3ccc(Cl)cc3Br)c2)cc1` [Example 208], the activity at 50 µM in experiment [2] is not above 50%.

Turning to `Ic1cccc(COc2cccc(CNCC3CNC3)c2)c1` [Example 219], the activity at 25 µM in experiment [1] was not above 10%. For the same molecule, the activity at 50 µM in experiment [2] was not above 50%. `Brc1ccccc1COc1cccc(CNCC2CCNC2)c1` (stereo not drawn) [Example 220]: the activity at 50 µM in experiment [2] was not above 50%. With `Ic1cccc(COc2cccc(CNCC3CCNC3)c2)c1` (stereo not drawn) [Example 221], the activity at 25 µM in experiment [1] was not above 10%. In addition, the activity at 50 µM in experiment [2] is not above 50%. Consider `CC(C)(C)c1ccc(COc2cccc(CNCC3CNC3)c2)cc1` [Example 222], for which the activity at 25 µM in experiment [1] was not above 10%. For the same molecule, the activity at 50 µM in experiment [2] is not above 50%.

For the molecule `CC(C)(C)c1ccc(COc2cccc(CNC3CCNCC3)c2)cc1` [Example 223], the activity at 25 µM in experiment [1] was not above 10%. For the same molecule, in experiment [2], the activity at 50 µM is not above 50%.

For `C=CCOc1cc(/C=C/c2cccc(OC)c2)cc(CNCC2CNC2)c1` [Example 276], the activity at 25 µM in experiment [1] is not above 10%. Further, the activity at 50 µM in experiment [2] is not above 50%. Consider `CC(C)(C)c1ccc(COc2cc(CNCC3CNC3)cc(OCCN3CCOCC3)c2)cc1` [Example 277], for which the activity at 25 µM in experiment [1] was not above 10%. For the same molecule, the activity at 50 µM in experiment [2] was not above 50%. On the same counts, the results for `C=CCOc1cc(/C=C/c2ccccc2OC)cc(CNCC2CNC2)c1` [Example 285] are not above 10% and not above 50%.

As for `C[N+]1(C)CC(OCc2cc(CNCC3CNC3)cc(OCc3ccc(Cl)cc3Br)c2)CC1C(=O)O` (stereo not drawn) [Example 288], the activity at 50 µM in experiment [1] and in experiment [2] was not above 50% in each case. In the case of `N#Cc1ccc(/C=C/c2cccc(CNCC3CCNC3)c2)c(C(F)(F)F)c1` (stereo not drawn) [Example 314], in experiment [1], the activity at 25 µM was not above 10%. In addition, the activity at 50 µM in experiment [2] was not above 50%. For `C=CCOc1cc(/C=C/c2cnccc2C#N)cc(CNCC2CCNC2)c1` (stereo not drawn) [Example 316], the activity at 25 µM in experiment [1] is not above 10%. Further, the activity at 50 µM in experiment [2] was not above 50%. Consider `C=CCOc1cc(/C=C/c2cccs2)cc(CNCC2CCNC2)c1` (stereo not drawn) [Example 319], for which the activity at 25 µM in experiment [1] is not above 10%. Besides, the activity at 50 µM in experiment [2] is not above 50%. Consider `C=CCOc1cc(/C=C/c2ccsc2)cc(CNCC2CCNC2)c1` (stereo not drawn) [Example 320], for which the activity at 25 µM in experiment [1] was not above 10%. The activity at 50 µM in experiment [2] was not above 50%. For `C=CCOc1cc(/C=C/c2ccc(OC)cc2OC)cc(CNCC2CNC2)c1` [Example 323], in experiment [1], the activity at 25 µM was not above 10%. Besides, the activity at 50 µM in experiment [2] is not above 50%. With `CC(C)COc1cc(/C=C/c2cccc(C(N)=O)c2)cc(CNCC2CCNC2)c1` (stereo not drawn) [Example 331], in experiment [1], the activity at 25 µM is not above 10%. Further, in experiment [2], the activity at 50 µM is not above 50%. With `C=CCOc1cc(CNCC2CCNC2)cc(CNC(=O)c2ccc(Cl)cc2Br)c1` (stereo not drawn) [Example 349], the activity at 50 µM in experiment [2] is not above 50%. On to `C=CCOc1cc(/C=C/c2nc(C(C)C)cs2)cc(CNCC2CCNC2)c1` (stereo not drawn) [Example 353], for which the activity at 25 µM in experiment [1] was not above 10%. Besides, the activity at 50 µM in experiment [2] is not above 50%. Turning to `C=CCOc1cc(/C=C/c2ccc(Cl)cc2Br)cc(CNC(=O)[C@H]2CCNC2)c1` [Example 366], the activity at 25 µM in experiment [1] is not above 10%. Besides, the activity at 50 µM in experiment [2] is not above 50%.

For the molecule `C=CCOc1cc(CNCC2CNC2)cc(OCc2cc(C)on2)c1` [Example 420], the activity at 50 µM in experiment [2] is not above 50%. `C=CCOc1cc(CNCC2CCNC2)cc(OCCc2ccncc2)c1` (stereo not drawn) [Example 424]: in experiment [2], the activity at 50 µM was not above 50%. On to `c1cncc(COc2cc(CNCC3CNC3)cc(OCCc3ccncc3)c2)c1` [Example 425], for which the activity at 50 µM in experiment [2] was not above 50%. Same read-out and setting: for `C=CCOc1cc(CNCC2CNC2)cc(OCc2cncc(C(N)=O)c2)c1` [Example 437] the value was not above 50%; for `C(=C\c1cc(CNCC2CCNC2)cc(OCCN2CCOCC2)c1)/c1cccnc1` (stereo not drawn) [Example 440], not above 50%. `C=CCOc1cc(/C=C/c2ccc(Cl)cc2Br)cc(C(=O)NCC(=O)NCC2CNC2)c1` [Example 445]: the activity at 25 µM in experiment [1] is not above 10%. Also, the activity at 50 µM in experiment [2] is not above 50%. For `C=CCOc1cc(/C=C/c2cncc(C(N)=O)c2)cc(CNCC2CCNC2)c1` (stereo not drawn) [Example 458], the activity at 50 µM in experiment [2] was not above 50%.

`N#Cc1cncc(/C=C/c2cc(CNCC3CCNC3)cc(OCc3ccccn3)c2)c1` (stereo not drawn) [Example 474]: the activity at 50 µM in experiment [2] is not above 50%. In the case of `C=CCOc1cc(/C=C/c2ccc(N)cc2)nc(CNCC2CCNC2)c1` (stereo not drawn) [Example 475], the activity at 50 µM in experiment [1] and in experiment [2] was not above 50% in each case. For `CC(C)COc1cc(CNCC2CCNC2)cc(CNC(=O)c2cccc(C(N)=O)c2)c1` (stereo not drawn) [Example 477, N1-[[3-isobutoxy-5-[(pyrrolidin-3-ylmethylamino)methyl]phenyl]methyl]benzene-1,3-dicarboxamide], the activity at 50 µM in experiment [2] was not above 50%. For the molecule `N#Cc1cncc(/C=C/c2cc(O)cc(CNCC3CCNC3)c2)c1` (stereo not drawn) [Example 480, 5-[(E)-2-[3-hydroxy-5-[(pyrrolidin-3-ylmethylamino)methyl]phenyl]vinyl]pyridine-3-carbonitrile], in experiment [2], the activity at 50 µM is not above 50%.

`N#Cc1cncc(/C=C/c2cc(CNCC3CCNC3)cc(OCCc3ccncc3)c2)c1` (stereo not drawn) [Example 496]: the activity at 50 µM in experiment [2] is not above 50%. Take `O=C(NCc1cc(CNCC2CNC2)cc(OCCc2ccncc2)c1)c1cccnc1` [Example 510]: the activity at 50 µM in experiment [2] was not above 50%.

The values above are taken from patent US10464896B2, “Efflux-pump inhibitors and therapeutic uses thereof” (Basilea Pharmaceutica International AG, priority 2015, dated 2019).
